Laboratory results from patent US7456197B2, “Pyridinium cationic lipids as gene transfer agents” (The Texas A&M University System, priority 2003, dated 2008).
Entries after “also recorded” stand apart in the source; their conditions may differ.

Tests used:
cancer cell line NCI-H23 = assay: WST-1 viability assay of transfected cells; assay type: cell-based, human
Experimental: FIG. 6. Viability assay results for the cancer cell line NCI-H23 transfected with 5AMyr-5EMyr and DOTAP (Cl^−)-based lipoplexes. The other characteristics were the same as in the transfection experiment represented in FIG. 5.
In order to assess the cytotoxicity associated with every anion, a WST-1^28 viability assay was conducted in parallel.

[1] = system: lung cancer cell line NCI-H23; assay: Luciferase (pGL3) transfection efficiency of lipoplexes, NCI-H23; assay type: cell-based, human; settings: exposure from one hour to three hours; data not shown
[2] = system: lung cancer cell line NCI-H23; assay: as above; assay type: cell-based, human; settings: 5Myr/Chol 1:1, PBS, sonicated two sequences of 15 minutes, FIG. 5
Experimental: The three series of cationic lipids newly synthesized were assessed for their transfection efficiency in vitro, using the experimental conditions optimized in a previous study.^23 Essentially the cationic lipids were mixed with cholesterol at a 1:1 molar ratio, dissolved in chloroform/methanol and dried under vacuum to generate a lipid film. The dried lipid film was hydrated with sterile phosphate buffer isotonic saline with pH=7.4 (PBS) and sonicated to yield cationic liposomes. The resulting liposomal solution was allowed to react with a DNA solution to form the final cationic lipid-DNA complexes (lipoplexes), which were assessed for transfection efficiency using different cell cultures. We used a pGL3 plasmid (Promega, Madison, Wisc.), encoding a firefly luciferase gene under the control of the constitutively active SV40 promoter as the reporter for the transfection efficiency. An optimal^23 electrostatic charge ratio cationic lipid/DNA of 2:1 was used in all preparations. […] The ability of these new cationic lipids to generate relatively small cationic liposomes could be attributed to the relatively large curvature radius induced in the bilayer by the bulky pyridinium cationic head.
(§1) Dioleoylphosphatidylethanolamine (DOPE), cholesterol (CHOL), N-(2,3-dioleoyloxypropyl)-N,N,N-trimethylammonium chloride (DOTAP) were commercial products. The purity of the lipids was checked by thin layer chromatography and also by differential scanning calorimetry (DSC), which was also used for determining the critical temperature Tc. For the preparation of the liposomes a protocol optimized for this type of compounds was adopted as follows. The cationic lipid (with or without helper lipid) was dissolved in chloroform/methanol (2/1, v/v) to reach a final concentration of 1 mM for the charged species. From this stock solution 50 μL were aliquoted in a 1 mL tube and the solvent was evaporated in a SpeedVac evaporator, under vacuum, for 1 h. The dried lipid film was prepared by removing the traces of organic solvent in a dessicator, over Drierite®, under vacuum, overnight. The film was hydrated with 500 μL sterile phosphate buffer saline (PBS) the tube was purged with sterile N2, and vortexed for 1 minute. The liposomes were generated by sonicating the tube in a water bath sonicator for 5-30 minutes at 62° C. and at 37° C. for DOTAP. After sonication the preparations were allowed to reach room temperature.
For generating the lipoplexes, 1.4-2.8 μL plasmid DNA solution (0.5 μg/μL) was diluted with 100 μL Optimem®. A liposome solution was prepared separately by diluting the initial liposomal stock solution (0.1 mM in cationic lipid) with Optimem® in specified proportions, to reach a final volume of 50 μL. Over this liposome solution 50 μL of the DNA stock solution was added, the tube was incubated for 30 minutes at room temperature and then the content diluted with 500 μL Optimem® (final volume of the lipoplex stock solution: 600 μL).
The lipoplexes was tested for their transfection properties over five different cancer cell lines—breast carcinoma (MCF-7 and MDA-Mb231), lung carcinoma (NCI-H23), prostate carcinoma (DU-145) and brain carcinoma (SWB-95). The cells were maintained in 10% fetal bovine serum (FBS)—enriched RPMI 1640 at 37° C. and 5% CO2 in a humidified atmosphere. Twenty-four hours prior to transfection the cells were transferred in 96-wells microtiter plate at a density of 20,000 cells/well. Each well received 100 μL medium and the plate was incubated in the same conditions. All experiments were done in triplicate or quadruplicate.
Immediately before transfection the medium was removed from each well and the cells were briefly washed with 200 μL sterile PBS. After removal of the PBS each well received 100 μL lipoplex stock solution and the plate was placed in the incubator for 1 hour. Then, 100 μL medium was added to each well and the plate was incubated for 24 hours. […]

[3] = Critical (phase transition) temperature Tc by differential scanning calorimetry; assay type: physicochemical
Experimental: General. Melting points for the diols and the phase transition temperature Tc for the cationic lipids were determined by differential scanning calorimetry (DSC), using a TA-Instruments Q100 DSC, and a heating rate of 5° C./minute. The IR spectra were recorded on a Nicolet Avatar 360 FTIR spectrophotometer in the range 650-4000 cm^−1 using a ZnSe—attenuated total reflectance (ATR) accessory. The compounds were solved in a small amount of solvent (MeOH for the diols, CHCl3 for the lipids), and the resulted solutions were left to evaporate to dryness on the surface of the ZnSe crystals of the ATR accessory. The NMR spectra were recorded at ≈303 K with a Varian Inova spectrometer equipped with a 5 mm indirect detection probe, operating at 500 MHz for ^1H-NMR and at 125 MHz for ^13C-NMR. Chemical shifts are reported as δ values, using TMS as internal standard for proton spectra and the solvent resonance for carbon spectra. Assignments were made based on signal intensity, selective decoupling, COSY (^1H-^1H) and HETCOR (^1H-^13C) sequences. Elemental analyses were performed by combustion, using a Perkin Elmer 2400 Series II CHNS analyser.
as §1
Materials and Methods. Melting points for the diols, acetates and ketals were determined on a Boetius heating plate microscope and are uncorrected. For the cationic lipids 21 and 25 the phase transition temperature Tc was determined by differential scanning calorimetry (DSC), using a TA-Instruments Q100 DSC, and a heating rate of 5° C./minute. The IR spectra were recorded on a Nicolet Avatar 360 FTIR spectrophotometer, in the range 650-4000 cm^−1, using a ZnSe—attenuated total reflectance (ATR) accessory. The compounds were solved in a small amount of solvent (MeOH for the diols, CHCl3 for the esters), the resulted solutions being left to evaporate to dryness on the surface of the ZnSe crystals of the ATR accessory. This technique was imposed by the poor results obtained in transmission mode for some of the compounds, due to the lack of crystallization, hygroscopicity and other problems related with working with KBr pellets. The NMR spectra were recorded at ≈303 K with a Varian Gemini 300BB spectrometer operating at 300 MHz for ^1H and at 75 MHz for ^13C. Chemical shifts are reported as δ values, using TMS as internal standard for proton spectra and the solvent resonance for carbon spectra: 77.00 ppm in CDCl3, 39.50 ppm in DMSO-d6, the line from 123.50 ppm in pyridine-d5, 62.80 ppm in nitromethane-d3, 30.10 ppm in dimethylformamide-d7. Assignments were made based on signal intensity, selective decoupling and COSY (^1H-^1H) and HETCOR (^1H-^13C) sequences. Nitrogen elemental analysis was performed by combustion, mixing the samples with small amounts of quartz sand.

[4] = system: HeLa cells (human carcinoma cell line ATCC No. CCL-2); assay: Luciferase (pGL3-Control) transfection efficiency, HeLa cells; assay type: cell-based; settings: no helper lipid, DOTAP as reference
Experimental: Transfection experiments were carried out in vitro on HeLa cells (human carcinoma cell line ATCC No. CCL-2), using a pGL3-Control plasmid (Promega, Madison, Wisc.), which encodes the firefly luciferase reporter. The structurally related and commercially available DOTAP (2) mentioned earlier was chosen as reference.
HeLa cell line was obtained from ATCC, MD. The plasmid pGL3-control, encoding a firefly luciferase reporter was from Promega (Madison, Wisc.). As transfection reference we used N-[1-(2,3-dioleoyloxy)propyl]-N,N,N-trimethylammonium methylsulfate (DOTAP), obtained from Roche Molecular Biochemicals (Indianapolis, Ind.). The BCA protein assay kit was from Pierce (Rockford, Ill.).
All of the pyridinium cationic lipids, along with the DOTAP reference, were tested in triplicate in two independent assays. The pyridinium cationic lipids containing tetrafluoroborate (BF4^−) or perchlorate (ClO4^−) anion were dissolved in ethanol/chloroform. The lipid solution was evaporated to dryness using a Speedvac rotary evaporating device, under vacuum. Traces of solvents were removed from the lipid film by keeping the vials under vacuum for another 3 hours. Ultrapure water was added to the dry lipid film, so that a final 1 μg/μL concentration could be reached, and the lipid film was allowed to hydrate overnight. […]

| SMILES | cytotoxicity (WST-1 viability) (cancer cell line NCI-H23; NCI-H23 transfected with lipoplexes, Chol 1:1, FIG. 6) | cytotoxic effect on longer cell exposure to lipoplexes (cancer cell line NCI-H23; exposure from one hour to three hours, data not shown) | transfection efficiency on longer cell exposure to lipoplexes [1] | transfection efficiency, counterion study [2] | Tc (critical temperature), Pure ([3]; pure lipid) [°C] | Tc (critical temperature), With cholesterol (1:1 molar ratio) ([3]; with cholesterol, 1:1 molar ratio) [°C] | transfection efficiency (in words) [4] | Tc (phase transition temperature) ([3]; lipids 21 and 25, DSC, heating rate 5° C./minute) [°C] |
| --- | --- | --- | --- | --- | --- | --- | --- | --- |
| CCCCCCCCCCCCCC(=O)OCC(COC(=O)CCCCCCCCCCCCC)[n+]1c(C)cc(C)cc1C.[Cl-] [Lipid 5DMyr, 1-(1,3-dimyristoyloxypropane-2-yl)-2,4,6-trimethylpyridinium chloride] | minimum cytotoxicity; also recorded: lower cytotoxic effect | without any visible cytotoxic effect | higher transfection efficiencies | surpassed DOTAP in transfection efficiency | 76.3 | 81.2 |  |  |
| CCCCCCCCCCCCCCCC(=O)OCC(COC(=O)CCCCCCCCCCCCCCC)[n+]1c(C)cc(C)cc1C.F[B-](F)(F)F [Lipid 25AbP, 1-(1,3-Dipamitoyloxypropane-2-yl)-2,4,6-trimethylpyridinium tetrafluoroborate] |  |  |  |  |  |  | comparable with that of DOTAP | 70 |
